According to ChEMBL document CHEMBL1909294, “Translating clinical findings into knowledge in drug safety evaluation--drug induced liver injury prediction system (DILIps)” (PLoS Comput Biol, 2011):

How the values were obtained:
[1] = test system: Hepatotoxicity;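 for HepSE bilirubinemia: bilirubinemia hepatic side effect score drawn from the DILIps training data, a prediction system for drug-induced liver injury; call rule not given here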;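 for HepSE cholecystitis: Cholecystitis-related hepatic side effect score drawn from the DILIps (drug-induced liver injury prediction) training data set; call rule not given here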;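 for HepSE cholelithiasis: hepatic side effect score for cholelithiasis, drawn from the DILIps training data for predicting drug-induced liver injury; call rule not given here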;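 for HepSE cirrhosis: cirrhosis hepatic side effect score taken from the DILIps (drug-induced liver injury prediction) training set; call rule not given here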;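 for HepSE elevated liver function tests: hepatic side effect score for raised liver function tests, as recorded in the DILIps training set used for predicting drug-induced liver injury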; for HepSE hepatic failure: call rule not given here;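 for HepSE hepatomegaly: hepatic side effect score for hepatomegaly, taken from the training set of the DILIps drug-induced liver injury prediction system; call rule not given here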
[2] = test system: Hepatotoxicity; remark: listed apart in the source;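 for HepSE bilirubinemia: bilirubinemia hepatic side effect score drawn from the DILIps training data, a prediction system for drug-induced liver injury; call rule not given here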;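 for HepSE cholecystitis: Cholecystitis-related hepatic side effect score drawn from the DILIps (drug-induced liver injury prediction) training data set; call rule not given here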;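 for HepSE cholelithiasis: hepatic side effect score for cholelithiasis, drawn from the DILIps training data for predicting drug-induced liver injury; call rule not given here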;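 for HepSE cirrhosis: cirrhosis hepatic side effect score taken from the DILIps (drug-induced liver injury prediction) training set; call rule not given here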;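 for HepSE elevated liver function tests: hepatic side effect score for raised liver function tests, as recorded in the DILIps training set used for predicting drug-induced liver injury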; for HepSE hepatic failure: call rule not given here
[3] = test system: Hepatotoxicity; remark: listed apart in the source;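 for HepSE bilirubinemia: bilirubinemia hepatic side effect score drawn from the DILIps training data, a prediction system for drug-induced liver injury; call rule not given here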;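 for HepSE cholecystitis: Cholecystitis-related hepatic side effect score drawn from the DILIps (drug-induced liver injury prediction) training data set; call rule not given here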;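 for HepSE cholelithiasis: hepatic side effect score for cholelithiasis, drawn from the DILIps training data for predicting drug-induced liver injury; call rule not given here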;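 for HepSE cirrhosis: cirrhosis hepatic side effect score taken from the DILIps (drug-induced liver injury prediction) training set; call rule not given here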;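 for HepSE elevated liver function tests: hepatic side effect score for raised liver function tests, as recorded in the DILIps training set used for predicting drug-induced liver injury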; for HepSE hepatic failure: call rule not given here
[4] = test system: Hepatotoxicity; remark: listed apart in the source;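 for HepSE bilirubinemia: bilirubinemia hepatic side effect score drawn from the DILIps training data, a prediction system for drug-induced liver injury; call rule not given here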;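 for HepSE cholecystitis: Cholecystitis-related hepatic side effect score drawn from the DILIps (drug-induced liver injury prediction) training data set; call rule not given here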;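 for HepSE cholelithiasis: hepatic side effect score for cholelithiasis, drawn from the DILIps training data for predicting drug-induced liver injury; call rule not given here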;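 for HepSE cirrhosis: cirrhosis hepatic side effect score taken from the DILIps (drug-induced liver injury prediction) training set; call rule not given here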;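 for HepSE elevated liver function tests: hepatic side effect score for raised liver function tests, as recorded in the DILIps training set used for predicting drug-induced liver injury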; for HepSE hepatic failure: call rule not given here
[5] = test system: Hepatotoxicity; remark: listed apart in the source; for HepSE hepatic failure: call rule not given here
[6] = test system: Hepatotoxicity; remark: listed apart in the source; for HepSE hepatic failure: call rule not given here
[7] = test system: Hepatotoxicity; remark: listed apart in the source
[8] = test system: Hepatotoxicity; remark: listed apart in the source
[9] = test system: Hepatotoxicity; remark: listed apart in the source
[10] = test system: Hepatotoxicity; remark: listed apart in the source
[11] = test system: Hepatotoxicity; remark: listed apart in the source
[12] = test system: Hepatotoxicity; remark: listed apart in the source
[13] = test system: Hepatotoxicity; remark: listed apart in the source
[14] = test system: Hepatotoxicity; remark: listed apart in the source

| SMILES | HepSE_bilirubinemia [1] | HepSE_cholecystitis [2] | HepSE_cholelithiasis [3] | HepSE_cirrhosis [4] | HepSE_elevated liver function tests [5] | HepSE_hepatic failure [6] | HepSE_hepatic necrosis [7] | HepSE_hepatitis [8] | HepSE_hepatomegaly [9] | HepSE_jaundice [10] | HepSE_liver disease [11] | HepSE_liver fatty [12] | HepSE_liver function tests abnormal [13] | HepSE_Combined Scores [14] | further results |
| --- | --- | --- | --- | --- | --- | --- | --- | --- | --- | --- | --- | --- | --- | --- | --- |
| CO/N=C(\C(=O)N[C@@H]1C(=O)N2C(C(=O)O)=C(CSc3nc(=O)c(=O)[nH]n3C)CS[C@H]12)c1csc(N)n1 [CEFTRIAXONE] | 0 | 0 | 0 | 0 | 0 | 0 | 0 | 0 | 0 | 0 | 0 | 0 | 0 | 0 | – |
| CO/N=C(\C(=O)N[C@@H]1C(=O)N2C(C(=O)O)=C(COC(N)=O)CS[C@H]12)c1ccco1 [CEFUROXIME] | 0 | 0 | 0 | 0 | 0 | 0 | 0 | 1 | 0 | 1 | 0 | 0 | 0 | 2 | – |
| Cc1ccc(-c2cc(C(F)(F)F)nn2-c2ccc(S(N)(=O)=O)cc2)cc1 [CELECOXIB] | – | – | – | – | – | – | – | – | – | – | – | – | – | – | HepSE_bilirubinemia ([1]; Liver): 0; HepSE_cholecystitis ([2]; Liver): 0; HepSE_cholelithiasis ([3]; Liver): 1; HepSE_cirrhosis ([4]; Liver): 0; HepSE_elevated liver function tests ([5]; Liver): 0; HepSE_hepatic failure ([6]; Liver): 1; HepSE_hepatic necrosis ([7]; Liver): 0; HepSE_hepatitis ([8]; Liver): 1; HepSE_hepatomegaly ([9]; Liver): 0; HepSE_jaundice ([10]; Liver): 1; HepSE_liver disease ([11]; Liver): 0; HepSE_liver fatty ([12]; Liver): 0; HepSE_liver function tests abnormal ([13]; Liver): 1; HepSE_Combined Scores ([14]; Liver): 5 |
| CC1=C(C(=O)O)N2C(=O)[C@@H](NC(=O)[C@H](N)C3=CCC=CC3)[C@H]2SC1 [CEPHRADINE] | 0 | 0 | 0 | 0 | 0 | 0 | 0 | 0 | 0 | 0 | 0 | 0 | 0 | 0 | – |
| COCc1c(C(C)C)nc(C(C)C)c(/C=C/[C@@H](O)C[C@@H](O)CC(=O)O)c1-c1ccc(F)cc1 [CERIVASTATIN] | 0 | 0 | 0 | 1 | 0 | 0 | 1 | 1 | 0 | 1 | 0 | 0 | 0 | 4 | – |
| O=C(O)CCCc1ccc(N(CCCl)CCCl)cc1 [CHLORAMBUCIL] | 0 | 0 | 0 | 0 | 0 | 0 | 0 | 0 | 0 | 1 | 0 | 0 | 0 | 1 | – |
| O=C(N[C@H](CO)[C@H](O)c1ccc([N+](=O)[O-])cc1)C(Cl)Cl [CHLORAMPHENICOL] | 0 | 0 | 0 | 0 | 0 | 0 | 0 | 0 | 0 | 0 | 0 | 0 | 0 | 0 | – |
| CNC1=Nc2ccc(Cl)cc2C(c2ccccc2)=[N+]([O-])C1 [CHLORDIAZEPOXIDE] | 0 | 0 | 0 | 0 | 0 | 0 | 0 | 0 | 0 | 1 | 0 | 0 | 0 | 1 | – |
